Like-named read-outs stand apart in the source and are kept apart here.
Key:
[1] = system: HCMV Strain AD169; test: Viral qPCR assay, HCMV (Example 14); assay type: cell-based
Protocol: (§1) MRCS and Vero cells were obtained from ATCC and were maintained at 37° C./5% CO2/90% relative humidity in Minimal Essential Medium with 10% fetal bovine serum, […], 100 units/mL penicillin and 100 ug/mL streptomycin. Assay plates were prepared by dispensing compounds dissolved in DMSO into wells of 384 well collagen-coated plates using an ECHO acoustic dispenser. Each test compound was tested in a 10-point, serial 3-fold dilution. Controls included uninfected cells and infected cells treated only with DMSO. Assays were initiated by mixing selected cells, in suspension, with virus, and dispensing 50 μl/well infected cells to pre-plated compounds. Plates were incubated at 37° C./5% CO2/90% relative humidity for ˜72 hours to permit genomic replication, and infected cells were lysed by the addition of an equal volume of lysis buffer (10 mM Tris-HCl, pH8, 50 mM KCl, 2 mM MgCl2, 0.45% NP-40, 0.45% Tween-20, and 100 μg/mL proteinase K). An aliquot of the lysate was then transferred to a 384-well PCR plate and incubated at 56° C. for 1 hour, and then at 95° C. for 10 minutes. Levels of a viral gene were measured in 10 ul qPCR assays using TaqMan® Gene Expression Master Mix (Applied Biosystems) and an 7900HT Fast Real-Time PCR System with 384-Well Block Module. 7-point, serial 10-fold dilutions of a plasmid standard were run on each plate to generate a standard curve, and genome copies numbers were calculated by plotting experimental Ct onto linear regression of the standard curve. Compound effects on viral genome copy number were normalized to the window defined by the controls. Calculated % effects were fit using a 4-parameter algorithm, and EC50 was reported. • HCMV: Strain AD169 was assayed in MRC-5 cells and was used at 0.05-0.1 pfu/cell. The assays were performed in either growth media or in the same media with 50% fetal bovine serum. Primer-probe set was Thermo Fisher Assay ID=AIFATFK. • HSV-1: Strain F was assayed in Vero or MRCS cells and was used at 0.0005-0.004 pfu/cell in growth medium. Primer-probe set was Thermo Fisher Assay ID=AIBJZIB. • HSV-2: Strain G was assayed in Vero or MRCS cells and was used at 0.004-0.4 pfu/cell in growth medium. Primer-probe set was Thermo Fisher Assay ID=AICSXOJ.

[2] = molecular target: T1, Human cytomegalovirus DNA polymerase (Human cytomegalovirus, UniProt P08546); test: CMV polymerase assay (AlphaLISA, Example 15); assay type: biochemical; conditions: HCMV polymerase 0.2 nM; 30 min pre-incubation; 60 min at 37° C.
T1 construct: made in house; host or cells: SF21 insect cells (baculovirus vector)
Protocol: (§2) CMV and VZW Polymerase Assays
(§3) Human cytomegalovirus and varicella zoster virus DNA polymerases were expressed via baculovirus vector in SF21 cells and purified. Heterodimeric nucleic acid substrate used in the herpesvirus polymerase reactions were generated by annealing a 59-mer template to a 17-mer digoxigenin-labeled primer. Polymerase (HCMV final concentration of 0.2 nM; VZV final concentration of 0.4 nM) was combined with an inhibitor compound or DMSO in assay buffer (10 mM HEPES, pH 7.5, 25 mM KCl, 25 mM NaCl, 5 mM MgCl2, 5% glycerol, 0.67 mg/ml bovine serum albumin, and 1 mM tris(2-carboxyethyl)phosphine)), and this mixture was pre-incubated for 30 minutes at room temperature in 384-well microtiter plates. The polymerization reaction was initiated by the addition of template/primer substrate (final concentration: 1.6 nM) and dNTPs (final concentration: 24 nM dCTP, 24 nMdGTP, 16 nM dATP, 16 nM dTTP, and 0.8 nM biotin-dUTP). After a 60 minute incubation period at 37° C., the reactions were terminated using quench buffer (25 mM HEPES pH 7.5, 100 mM NaCl, 0.25% Tween-20, 12 mM EDTA, and 1 mg/ml bovine serum albumin). Incorporation of biotinylated UTP was detected with 2.5-5 μg/mL anti-DIG AlphaLISA acceptor beads and 5-10 μg/mL streptavidin AlphaLISA donor beads (PerkinElmer). Compound effects were normalized to the window defined by the controls (DMSO only and pre-quenched wells) and were fit using a 4-parameter algorithm to report an IC50.

[3] = system: HSV-2 Strain G; test: Viral qPCR assay, HSV-2 (Example 14); assay type: cell-based; conditions: Strain G in Vero or MRCS cells, 0.004-0.4 pfu/cell, viral genome copy number by qPCR, read-out: HSV2 Cell EC50
Protocol: as §1

[4] = system: HSV-1 Strain F; test: Viral qPCR assay, HSV-1 (Example 14); assay type: cell-based; conditions: Strain F in Vero or MRCS cells, 0.0005-0.004 pfu/cell, viral genome copy number by qPCR, read-out: HSV1 Cell EC50
Protocol: as §1

[5] = molecular target: T2, varicella zoster virus DNA polymerase (Varicella-zoster virus, UniProt P09252); test: VZV polymerase assay (AlphaLISA, Example 15); assay type: biochemical; conditions: VZV polymerase 0.4 nM; 30 min pre-incubation; 60 min at 37° C.
T2 construct: made in house; host or cells: SF21 insect cells (baculovirus vector)
Protocol: as §2, §3

[6] = Human betaherpesvirus 5, AD169, MRC5, 72 h, Strain AD169 in MRC-5 cells, 0.05-0.1 pfu/cell, ~72 hours, viral genome copy number by qPCR, growth media or 50% fetal bovine serum, read-out: CMV Cell EC50
[7] = Human alphaherpesvirus 2, Vero, 72 h
[8] = Human alphaherpesvirus 1, Vero, 72 h
[9] = Strain AD169 in MRC-5 cells, 0.05-0.1 pfu/cell, ~72 hours, viral genome copy number by qPCR, growth media or 50% fetal bovine serum, read-out: CMV Cell EC50

T1 sequence (P08546 whole entry): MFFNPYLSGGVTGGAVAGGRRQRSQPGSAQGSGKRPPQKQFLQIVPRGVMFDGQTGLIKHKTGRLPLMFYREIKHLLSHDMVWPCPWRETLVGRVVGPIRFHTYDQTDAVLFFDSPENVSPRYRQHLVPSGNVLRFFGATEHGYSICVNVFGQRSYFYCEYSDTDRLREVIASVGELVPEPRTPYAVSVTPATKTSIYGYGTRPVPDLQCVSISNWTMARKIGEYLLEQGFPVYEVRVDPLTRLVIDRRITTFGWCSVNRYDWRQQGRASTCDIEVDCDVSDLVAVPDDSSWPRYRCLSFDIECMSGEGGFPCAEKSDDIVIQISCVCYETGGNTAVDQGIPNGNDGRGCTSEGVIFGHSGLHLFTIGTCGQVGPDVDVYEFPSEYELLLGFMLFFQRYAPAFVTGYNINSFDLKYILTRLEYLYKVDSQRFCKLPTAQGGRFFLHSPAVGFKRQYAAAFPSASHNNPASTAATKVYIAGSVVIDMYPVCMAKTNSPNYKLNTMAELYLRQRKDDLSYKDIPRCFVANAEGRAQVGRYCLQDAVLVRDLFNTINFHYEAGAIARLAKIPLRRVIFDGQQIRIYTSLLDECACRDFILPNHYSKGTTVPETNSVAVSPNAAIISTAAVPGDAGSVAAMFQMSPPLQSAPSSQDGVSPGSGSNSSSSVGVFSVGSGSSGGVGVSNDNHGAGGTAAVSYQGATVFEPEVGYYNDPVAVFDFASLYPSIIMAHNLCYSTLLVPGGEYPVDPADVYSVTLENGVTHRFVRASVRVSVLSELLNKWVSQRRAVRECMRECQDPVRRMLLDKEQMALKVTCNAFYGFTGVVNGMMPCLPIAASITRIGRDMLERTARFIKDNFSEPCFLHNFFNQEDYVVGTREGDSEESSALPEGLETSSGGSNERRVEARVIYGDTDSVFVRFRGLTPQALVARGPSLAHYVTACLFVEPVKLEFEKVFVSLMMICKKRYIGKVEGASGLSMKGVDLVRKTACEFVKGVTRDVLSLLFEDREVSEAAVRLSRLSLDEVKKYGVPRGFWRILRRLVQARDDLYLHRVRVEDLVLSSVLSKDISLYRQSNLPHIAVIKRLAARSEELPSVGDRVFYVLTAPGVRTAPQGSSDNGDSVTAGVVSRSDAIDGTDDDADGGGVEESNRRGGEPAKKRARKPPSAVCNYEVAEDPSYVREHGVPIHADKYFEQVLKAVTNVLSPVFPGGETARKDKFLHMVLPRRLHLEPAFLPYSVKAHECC
T2 sequence (P09252 whole entry): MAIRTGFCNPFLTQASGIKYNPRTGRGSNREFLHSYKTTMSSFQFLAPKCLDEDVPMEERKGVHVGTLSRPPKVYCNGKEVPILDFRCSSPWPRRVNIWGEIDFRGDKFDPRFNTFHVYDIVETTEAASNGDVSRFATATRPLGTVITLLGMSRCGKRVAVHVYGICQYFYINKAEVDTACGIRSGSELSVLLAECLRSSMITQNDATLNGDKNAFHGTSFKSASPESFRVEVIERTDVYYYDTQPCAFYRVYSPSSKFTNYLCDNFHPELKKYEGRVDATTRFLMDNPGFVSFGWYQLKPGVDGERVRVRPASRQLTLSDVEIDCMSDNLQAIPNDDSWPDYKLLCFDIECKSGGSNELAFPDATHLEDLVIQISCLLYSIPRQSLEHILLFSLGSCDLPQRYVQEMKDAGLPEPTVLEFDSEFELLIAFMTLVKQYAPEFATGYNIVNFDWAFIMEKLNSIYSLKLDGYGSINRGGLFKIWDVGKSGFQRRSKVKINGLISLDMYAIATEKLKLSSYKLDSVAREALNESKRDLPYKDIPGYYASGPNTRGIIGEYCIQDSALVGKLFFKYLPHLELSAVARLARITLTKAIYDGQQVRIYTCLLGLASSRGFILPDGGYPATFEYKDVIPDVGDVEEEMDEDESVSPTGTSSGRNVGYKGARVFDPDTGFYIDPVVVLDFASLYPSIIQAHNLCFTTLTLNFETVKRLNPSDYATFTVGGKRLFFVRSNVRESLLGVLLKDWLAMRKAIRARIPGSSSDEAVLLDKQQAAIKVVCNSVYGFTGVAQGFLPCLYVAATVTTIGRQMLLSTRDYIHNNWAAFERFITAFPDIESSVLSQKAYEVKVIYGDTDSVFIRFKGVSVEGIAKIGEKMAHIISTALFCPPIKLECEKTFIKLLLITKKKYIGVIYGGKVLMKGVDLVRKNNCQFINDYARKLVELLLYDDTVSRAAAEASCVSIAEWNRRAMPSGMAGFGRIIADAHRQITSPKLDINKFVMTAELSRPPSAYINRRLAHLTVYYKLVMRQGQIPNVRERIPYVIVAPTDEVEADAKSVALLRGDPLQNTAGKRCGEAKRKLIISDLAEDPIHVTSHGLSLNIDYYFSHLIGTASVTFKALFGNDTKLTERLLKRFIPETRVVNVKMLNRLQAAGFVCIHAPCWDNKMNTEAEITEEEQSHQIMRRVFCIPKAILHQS

SMILES	EC50 [1, 6] [nM]	IC50 [2] [nM]	EC50 [3, 7] [nM]	EC50 [4, 8] [nM]	IC50 [5] [nM]	EC50 ([1]; Human betaherpesvirus 5, AD169, MRC5, 72 h, read-out: CMV Cell EC50 (nM)) [nM]	EC50 [1, 9] [nM]	EC50 ([3]; ~72 hours) [nM]	EC50 ([4]; ~72 hours) [nM]
COc1nc(N2CCC(F)(c3ccc(C#N)cc3)C2=O)ccc1C[C@H]1COC(=O)N1 (single isomer, unassigned) [Compound 8]	434	10	884	958	34	–	–	–	–
COc1nc(NC(=O)Cc2ccc(Cl)cc2COCc2ccccc2)ccc1C[C@H]1COC(=O)N1 [Compound 2]	3550	108	–	–	–	–	–	–	–
COc1nc(NC(=O)Cc2ccc(Cl)cc2CO)ccc1C[C@H]1COC(=O)N1 [Compound 3]	178	12	504	396	–	–	–	–	–
COCc1cc(Cl)ccc1CC(=O)Nc1ccc(C[C@H]2COC(=O)N2)c(OC)n1 [Compound 5]	116	12	318	166	18	–	–	–	–
COCc1cc(C#N)ccc1CC(=O)Nc1ccc(C[C@H]2COC(=O)N2)c(OC)n1 [Compound 6]	36	9	198	152	8	–	–	–	–
COc1nc(N2CCN(c3ccc(Cl)cc3)C2=O)ccc1C[C@H]1COC(=O)N1 [Compound 10]	522	14	291	282	–	–	–	–	–
COc1nc(N2CCN(c3ccc(C#N)c(F)c3)C2=O)ccc1C[C@H]1COC(=O)N1 [Compound 11]	–	30	–	–	–	596	–	–	–
COc1nc(NC(=O)N2Cc3ccc(Cl)cc3C2)ccc1C[C@H]1COC(=O)N1 [Compound 12]	> 9900	3770	–	–	4820	–	–	–	–
COc1nc(NC(=O)Cc2ccc(C#N)cc2)ccc1C[C@H]1COC(=O)N1 [Compound 13]	128	22	191	300	8	–	–	–	–
COc1nc(NC(=O)Cc2ccc(C(F)(F)F)c(F)c2)ccc1C[C@H]1COC(=O)N1 [Compound 14]	486	11	134	281	–	–	–	–	–
COc1nc(NC(=O)Cc2ccc(C#N)cc2F)ccc1C[C@H]1COC(=O)N1 [Compound 15]	83	7.5	523	453	8	–	–	–	–
COc1nc(NC(=O)C2CCc3cc(Cl)ccc32)ccc1C[C@H]1COC(=O)N1 (stereo partly shown) [Compound 17]	133	23	99	127	–	–	–	–	–
COc1nc(NC(=O)C2CCc3cc(Cl)ccc3O2)ccc1C[C@H]1COC(=O)N1 (stereo partly shown) [Compound 18]	435	1.4	148	128	1	–	–	–	–
COc1nc(N2CCN(c3ccc(C#N)cc3)C2=O)ccc1C[C@H]1COC(=O)N1 [Compound 21]	369	29	90	309	–	–	–	–	–
COc1nc(N2CCN(Cc3ccc(C#N)cc3)C2=O)ccc1C[C@H]1COC(=O)N1 [Compound 22]	318	35	100	131	–	–	–	–	–
COc1nc(NC(=O)C2CN(C)c3cc(C#N)ccc3O2)ccc1C[C@H]1COC(=O)N1 (stereo partly shown) [Compound 26]	–	–	–	–	–	–	39	73	60
COc1nc(NC(=O)C2CN(C)c3cc(C#N)ccc3O2)ccc1C[C@H]1COC(=O)N1 (stereo partly shown) [Compound 27]	–	–	–	–	–	–	10600	12900	62000
COc1nc(NC(=O)[C@@H]2Cc3ccc(C#N)cc3CN2C)ccc1C[C@H]1COC(=O)N1 [Compound 28]	175	–	802	381	–	–	–	–	–
COc1nc(NC(=O)C2CCc3cc(C#N)ccc3N2C)ccc1C[C@H]1COC(=O)N1 (stereo partly shown) [Compound 29]	–	–	–	–	–	–	345	4990	3510
COc1nc(NC(=O)C2CCc3cc(C#N)ccc3N2C)ccc1C[C@H]1COC(=O)N1 (stereo partly shown) [Compound 30]	–	–	–	–	–	–	2720	10700	7440
COc1nc(NC(=O)C2CCc3cc(C#N)ccc3C2)ccc1C[C@H]1COC(=O)N1 (stereo partly shown) [Compound 31]	–	–	–	–	–	–	11100	48400	70100
COc1nc(NC(=O)C2CCc3cc(C#N)ccc3C2)ccc1C[C@H]1COC(=O)N1 (stereo partly shown) [Compound 32]	–	–	–	–	–	–	73	173	117
COc1nc(NC(=O)C2(C)CCc3cc(C#N)ccc3O2)ccc1C[C@H]1COC(=O)N1 (stereo partly shown) [Compound 33]	–	–	–	–	–	–	1660	11100	8920
COc1nc(NC(=O)C2(C)CCc3cc(C#N)ccc3O2)ccc1C[C@H]1COC(=O)N1 (stereo partly shown) [Compound 34]	–	–	–	–	–	–	39800	> 80200	> 80200
COc1nc(NC(=O)C2Cc3ccc(C#N)cc3CN2)ccc1C[C@H]1COC(=O)N1 (stereo partly shown) [Compound 35]	–	–	–	–	–	–	206	583	252
COc1nc(NC(=O)C2Cc3ccc(C#N)cc3CN2)ccc1C[C@H]1COC(=O)N1 (stereo partly shown) [Compound 36]	–	–	–	–	–	–	1660	11100	1940

Source: US12605369B2, “Amido-substituted heterocyclic compounds and methods of use thereof for the treatment of herpes viruses” (Merck Sharp & Dohme LLC, priority 2019, dated 2026)
